{"source": "patent US3969521A", "about": "“Pharmaceutical compositions containing tetrahydroalstonine and method for treating circulation disorders” (Science Union et Cie, Societe Francaise de Recherche Medical, priority 1974, dated 1976)", "key": {"central nervous system": {"system": "central nervous system", "experiment": "Effects on the central nervous system", "format": "in vivo"}, "femoral blood flow": {"system": "femoral blood flow", "experiment": "Femoral blood flow, anaesthetized dogs", "format": "in vivo, dog", "details": "100 mg/kg perorally", "protocol": "Femoral blood flow was measured with an electromagnetic flowmeter (Statham)."}, "[1]": {"system": "carrageenin-induced paw oedema", "details": "rat, thesis (Kocialski); cited from earlier work"}, "[2]": {"system": "recovery of learned memories", "experiment": "Recovery of learned memories after electroshock (aquatic maze crossing)", "format": "in vivo, rat", "text": "Effects of tetrahydroalstonine on the recovery of learned memories on rats.\nTetrahydroalstonine has been tested on lots of rats in order to determine how fast it allows the recovery of learned memories after supramaximal electroshock in comparision with Vincamine and Papaverine. These last compounds are known to be active on the circulation namely as vasodilating agents.\nIn this test, as described by C. Giurgea (J. Pharmacol. (Paris) 3 17 (1972)), the rats are submitted to a submaximal electroshock which causes a spatio-temporal desorientation. This syndrom is evidenced by the difficulties the tested animals encountered for crossing over a maze filled with cold water without any error, after they have been submitted to the electroshock. The rats have been previously trained to swimm through this maze and the training has been renewed four times for 2 days.\nThe electric shock was delivered by means of a Neurovar apparatus (ALVAR Electronics) the third day. 20 Minutes after the electro shock, each lot of rats is tested and the time for crossing over the maze is determined. Immediately after, the rats received the compound to be tested by intra oesophageal tubing. Each lot is then experienced four times, 1, 2, 3, and 4 hours after the electroshock.\nThe score of performances of each individual is recorded and every error during the crossing over noticed.\nThe compounds to be tested (papaverine, vincamine and tetrahydroalstonine) are given to the animals, suspended in an aqueous solution of carboxymethylcellulose and sorbitan monooleate.\nPapaverine and vincamine were administered at dosis ranging from 1 to 20 mg/kg. Tetrahydroalstonine was administered at a dosis of 0.6 mg/kg, 6 mg/kg and 60 mg/kg.\nA lot of rats received only the aqueous solvent under the same volume (0.5 ml/100 g animal) as controls.\nTherein are reported for each lot of rats the number of errors and the average time for crossing over the maze during the 5 tests performed after the animals have been subjected to the electroshock.\nThe treatment has been given 20 mn after the electroshock, immediately\nafter the first crossing over"}, "[3]": {"details": "0,6 mg/kg P.O., 20 minutes after electroshock (before treatment)"}, "[4]": {"details": "6 mg/kg P.O., 20 minutes after electroshock (before treatment)"}, "[5]": {"details": "60 mg/kg P.O., 20 minutes after electroshock (before treatment)"}}, "note": "“Also recorded” adds a separate entry of the source.", "data": [{"smiles": "COC(=O)C1=CO[C@@H](C)[C@@H]2CN3CCc4c([nH]c5ccccc45)[C@@H]3C[C@H]12", "note": "[Tetrahydroalstonine]", "values": [{"measurement": "effect on the central nervous system", "setting": "central nervous system; dosage not stated", "result": "diphasic"}, {"measurement": "effect on the central nervous system", "setting": "central nervous system; higher dosages (20 to 40 mg/kg per os)", "result": "sedative effect"}, {"measurement": "effect on the central nervous system", "setting": "central nervous system; higher dosages (dose not stated)", "result": "sedative effects"}, {"measurement": "effect on the central nervous system", "setting": "central nervous system; low dosages", "result": "stimulating properties; also recorded: slight stimulating action"}, {"measurement": "vasodilatory effect on the femoral blood flow", "setting": "femoral blood flow", "result": "clear"}, {"measurement": "Femoral vein flow", "setting": "femoral blood flow; 45 minutes (Table I)", "result": "38,0"}, {"measurement": "Femoral vein flow", "setting": "femoral blood flow; 67 minutes (Table I)", "result": "38,7"}, {"measurement": "Femoral vein flow", "setting": "femoral blood flow; 90 minutes (Table I)", "result": "37,1"}, {"measurement": "Femoral vein flow", "setting": "femoral blood flow; 112 minutes (Table I)", "result": "34,5"}, {"measurement": "Femoral vein flow", "setting": "femoral blood flow; 135 minutes (Table I)", "result": "27,7"}, {"measurement": "effect on carrageenin-induced paw oedema", "setting": "[1]", "result": "negative"}, {"measurement": "a = variation of average number of errors as regard as the controls", "setting": "[2]; 0,6 mg/kg P.O., 20 minutes (before treatment)", "result": "-"}, {"measurement": "E = average number of errors", "setting": "[2]; [3]", "result": "12,3"}, {"measurement": "T = average time for crossing over", "setting": "[2]; [3]", "result": "124,2 seconds"}, {"measurement": "E = average number of errors", "setting": "[2]; 0,6 mg/kg P.O., 60 minutes", "result": "8,4"}, {"measurement": "T = average time for crossing over", "setting": "[2]; 0,6 mg/kg P.O., 60 minutes", "result": "85,2 seconds"}, {"measurement": "a = variation of average number of errors as regard as the controls", "setting": "[2]; 0,6 mg/kg P.O., 60 minutes", "result": "-"}, {"measurement": "E = average number of errors", "setting": "[2]; 0,6 mg/kg P.O., 120 minutes", "result": "6,2"}, {"measurement": "T = average time for crossing over", "setting": "[2]; 0,6 mg/kg P.O., 120 minutes", "result": "66,4 seconds"}, {"measurement": "a = variation of average number of errors as regard as the controls", "setting": "[2]; 0,6 mg/kg P.O., 120 minutes", "result": "-"}, {"measurement": "E = average number of errors", "setting": "[2]; 0,6 mg/kg P.O., 180 minutes", "result": "3,1"}, {"measurement": "T = average time for crossing over", "setting": "[2]; 0,6 mg/kg P.O., 180 minutes", "result": "37,9 seconds"}, {"measurement": "a = variation of average number of errors as regard as the controls", "setting": "[2]; 0,6 mg/kg P.O., 180 minutes", "result": "-"}, {"measurement": "b = statistical value (student's test), number of errors", "setting": "[2]; 0,6 mg/kg P.O., 180 minutes", "result": "0,01"}, {"measurement": "E = average number of errors", "setting": "[2]; 0,6 mg/kg P.O., 240 minutes", "result": "2,0"}, {"measurement": "T = average time for crossing over", "setting": "[2]; 0,6 mg/kg P.O., 240 minutes", "result": "29,4 seconds"}, {"measurement": "a = variation of average number of errors as regard as the controls", "setting": "[2]; 0,6 mg/kg P.O., 240 minutes", "result": "-"}, {"measurement": "b = statistical value (student's test), number of errors", "setting": "[2]; 0,6 mg/kg P.O., 240 minutes", "result": "0,0005"}, {"measurement": "potency compared with papaverine or vincamine", "setting": "[2]; 0.6 mg/kg", "result": "competes with that of 20 mg/kg of papaverine or vincamine"}, {"measurement": "time after which the statistically significant decrease of the number of mistakes appeared", "setting": "[2]; 0.6 mg/kg", "result": 180, "unit": "mn"}, {"measurement": "start of the improving effect", "setting": "[2]; 6 mg/kg", "result": 60, "unit": "mn"}, {"measurement": "time after which the statistically significant decrease of the number of mistakes appeared", "setting": "[2]; 6 mg/kg", "result": 120, "unit": "mn"}, {"measurement": "a = variation of average number of errors as regard as the controls", "setting": "[2]; 6 mg/kg P.O., 20 minutes (before treatment)", "result": "-"}, {"measurement": "E = average number of errors", "setting": "[2]; [4]", "result": "12,3"}, {"measurement": "T = average time for crossing over", "setting": "[2]; [4]", "result": "133,5 seconds"}, {"measurement": "E = average number of errors", "setting": "[2]; 6 mg/kg P.O., 60 minutes", "result": "6,9"}, {"measurement": "T = average time for crossing over", "setting": "[2]; 6 mg/kg P.O., 60 minutes", "result": "75,1 seconds"}, {"measurement": "a = variation of average number of errors as regard as the controls", "setting": "[2]; 6 mg/kg P.O., 60 minutes", "result": "-"}, {"measurement": "E = average number of errors", "setting": "[2]; 6 mg/kg P.O., 120 minutes", "result": "4,4"}, {"measurement": "T = average time for crossing over", "setting": "[2]; 6 mg/kg P.O., 120 minutes", "result": "52,5 seconds"}, {"measurement": "a = variation of average number of errors as regard as the controls", "setting": "[2]; 6 mg/kg P.O., 120 minutes", "result": "-"}, {"measurement": "b = statistical value (student's test), number of errors", "setting": "[2]; 6 mg/kg P.O., 120 minutes", "result": "0,05"}, {"measurement": "E = average number of errors", "setting": "[2]; 6 mg/kg P.O., 180 minutes", "result": "3,6"}, {"measurement": "T = average time for crossing over", "setting": "[2]; 6 mg/kg P.O., 180 minutes", "result": "54,6 seconds"}, {"measurement": "a = variation of average number of errors as regard as the controls", "setting": "[2]; 6 mg/kg P.O., 180 minutes", "result": "-"}, {"measurement": "b = statistical value (student's test), number of errors", "setting": "[2]; 6 mg/kg P.O., 180 minutes", "result": "0,05"}, {"measurement": "E = average number of errors", "setting": "[2]; 6 mg/kg P.O., 240 minutes", "result": "2,5"}, {"measurement": "T = average time for crossing over", "setting": "[2]; 6 mg/kg P.O., 240 minutes", "result": "23,8 seconds"}, {"measurement": "a = variation of average number of errors as regard as the controls", "setting": "[2]; 6 mg/kg P.O., 240 minutes", "result": "-"}, {"measurement": "b = statistical value (student's test), number of errors", "setting": "[2]; 6 mg/kg P.O., 240 minutes", "result": "0,005"}, {"measurement": "time after which the statistically significant decrease of the number of mistakes appeared", "setting": "[2]; 60 mg/kg", "result": 60, "unit": "mn"}, {"measurement": "a = variation of average number of errors as regard as the controls", "setting": "[2]; 60 mg/kg P.O., 20 minutes (before treatment)", "result": "-"}, {"measurement": "E = average number of errors", "setting": "[2]; [5]", "result": "10,6"}, {"measurement": "T = average time for crossing over", "setting": "[2]; [5]", "result": "135,0 seconds"}, {"measurement": "E = average number of errors", "setting": "[2]; 60 mg/kg P.O., 60 minutes", "result": "5,8"}, {"measurement": "T = average time for crossing over", "setting": "[2]; 60 mg/kg P.O., 60 minutes", "result": "62,2 seconds"}, {"measurement": "a = variation of average number of errors as regard as the controls", "setting": "[2]; 60 mg/kg P.O., 60 minutes", "result": "-"}, {"measurement": "b = statistical value (student's test), number of errors", "setting": "[2]; 60 mg/kg P.O., 60 minutes", "result": "0,025"}, {"measurement": "E = average number of errors", "setting": "[2]; 60 mg/kg P.O., 120 minutes", "result": "2,7"}, {"measurement": "T = average time for crossing over", "setting": "[2]; 60 mg/kg P.O., 120 minutes", "result": "28,8 seconds"}, {"measurement": "a = variation of average number of errors as regard as the controls", "setting": "[2]; 60 mg/kg P.O., 120 minutes", "result": "-"}, {"measurement": "b = statistical value (student's test), number of errors", "setting": "[2]; 60 mg/kg P.O., 120 minutes", "result": "0,005"}, {"measurement": "E = average number of errors", "setting": "[2]; 60 mg/kg P.O., 180 minutes", "result": "1,6"}, {"measurement": "T = average time for crossing over", "setting": "[2]; 60 mg/kg P.O., 180 minutes", "result": "18,8 seconds"}, {"measurement": "a = variation of average number of errors as regard as the controls", "setting": "[2]; 60 mg/kg P.O., 180 minutes", "result": "-"}, {"measurement": "b = statistical value (student's test), number of errors", "setting": "[2]; 60 mg/kg P.O., 180 minutes", "result": "0,0005"}, {"measurement": "E = average number of errors", "setting": "[2]; 60 mg/kg P.O., 240 minutes", "result": "1,8"}, {"measurement": "T = average time for crossing over", "setting": "[2]; 60 mg/kg P.O., 240 minutes", "result": "20,1 seconds"}, {"measurement": "a = variation of average number of errors as regard as the controls", "setting": "[2]; 60 mg/kg P.O., 240 minutes", "result": "-"}, {"measurement": "b = statistical value (student's test), number of errors", "setting": "[2]; 60 mg/kg P.O., 240 minutes", "result": "0,0005"}, {"measurement": "dose dependence of the effect on number of mistakes", "setting": "[2]; 0.6, 6 and 60 mg/kg", "result": "closely related to the used dosis"}, {"measurement": "time after the convulsive shock at which recovery of the memory is complete", "setting": "[2]; highest tested dosage (60 mg/kg)", "result": 120, "unit": "mn"}, {"measurement": "activity relative to papaverine and vincamine", "setting": "[2]; rat, in vivo", "result": "more active"}, {"measurement": "effect on the recovery of learned memory", "setting": "[2]; rat, in vivo", "result": "improving effect"}]}]}
